Experimental data as given in patent US8633177B2, “Nitroxyl (HNO) releasing compounds and uses thereof in treating diseases” (The United States of America, as represented by the …, priority 2010, dated 2014).

Legend:
[1] = Kinetic profile of NO and HNO release / stability in buffer; format: physicochemical; conditions: phosphate buffer pH 7.4, several hours
Protocol: The newly synthesized HNO-releasing aspirin (IPA/NO-aspirin, 4) and NO-releasing aspirin (DEA/NO-aspirin, 8) were evaluated for the kinetic profile of NO and HNO release in buffer and cells.

[2] = NO release measured with NO specific electrode, 2% serum; format: physicochemical; conditions: 100 μM; for NO release: 2% serum; for [NO]pA: phosphate buffer pH 7.4, 2% serum
Protocol: The release of NO was evaluated using an NO specific electrode. The NO electrode was stabilized in phosphate buffer pH 7.4 containing 2% serum. Compounds 4 and 8 in DMSO were added and the NO signal was measured. The experiment was repeated in the presence of 1 mM sodium ferricyanide.
Since there is no direct method for detection of HNO, 1 mM ferricyanide solution was used, which converts HNO to NO that can then be detected using NO electrode. K3Fe(CN)6+HNO ? NO

[3] = test system: Prostaglandin E2; assay: PGE2 production, prostaglandin E2 EIA kit; format: cell-based; conditions: 24 h
Protocol: Cells were plated at a concentration of 50,000 cells per well and grown overnight. Then 25, 50, and 100 μM of DMSO, IPA/NO-aspirin, and DEA/NO-aspirin were added to the corresponding well for 24 h and incubated at 37° C. The supernant was then analyzed for PGE2 activity using prostaglandin E2 EIA kit (Cayman Cat No. 514010).

[4] = test system: MB-468 cells; assay: MTT cell survival, MDA-MB-468; format: cell-based, human; conditions: MTT assay
Protocol: (§1) MDA-MB-231, MCF-7 and MDA-MB-468, human breast carcinoma cell lines and MCF-10A, breast […] (American Type Culture Collection, Manassas, Va.) were grown as monolayers in RPMI 1640 supplemented with 10% FCS (Hyclone), penicillin (50 units/ml), streptomycin ([…]; Life Technologies, Inc., Grand Island, N.Y.) and endothelial growth media (Lonanza) respectively. Cells were seeded at a density of 1×10^6 cells/100-cm^2 culture dish and incubated at 37° C. in 5% CO2 and 80% relative humidity. Single-cell suspensions were obtained by trypsinization (0.05% trypsin/EDTA), and cells were counted using a Beckman cell counter.
(§2) 1000× stock solutions aspirin, of a DEA/NO-ASA, and IPA/NO-ASA were made in DMSO and final concentration in the media or PBS was adjusted to 0.1% DMSO.
(§3) The effect of NONO-aspirin on cell proliferation was studied using an MTT assay. The effect of DEA/NO-ASA, IPA/NO-ASA, aspirin, IPA/NO and DEA/NO was measured using the MTT assay. Cells were plated at a concentration of 8,000-10,000 cells per well in a 96 well plate and grown overnight. Cells were treated with different concentrations of the compounds and controls for 48 h. After 48 h, a solution of 5 mg/ml MTT was added to each well and incubated for 1 h. Then the media was removed from each well and 100 uL DMSO was added to each well and the absorbance was read at 550 nm. […]

[5] = test system: MB-231 cells; assay: MTT cell survival, MDA-MB-231; format: cell-based, human; conditions: MTT assay
Protocol: as §1, §2, §3

[6] = test system: MCF-10A; assay: MTT cell survival, MCF-10A; format: cell-based; conditions: MCF-10A normal mammary epithelial cell line, 48 h
Protocol: as §1, §2, §3

[7] = test system: breast cancer cells; assay: MTT cell survival, breast cancer cells (cell line not given); format: cell-based, human; conditions: 48 h of treatment, cell line not named
Protocol: The effect of NONO-aspirin on cell proliferation was studied using an MTT assay. The effect of DEA/NO-ASA, IPA/NO-ASA, aspirin, IPA/NO and DEA/NO was measured using the MTT assay. Cells were plated at a concentration of 8,000-10,000 cells per well in a 96 well plate and grown overnight. Cells were treated with different concentrations of the compounds and controls for 48 h. After 48 h, a solution of 5 mg/ml MTT was added to each well and incubated for 1 h. Then the media was removed from each well and 100 uL DMSO was added to each well and the absorbance was read at 550 nm. Inhibition of growth with different treatments was reported as percentage of corresponding control.

[8] = test system: caspase-3; assay: Caspase-3 fluorescence assay, MDA-MB-468; format: cell-based, human; conditions: 12 h
Protocol: The caspase-3 activity in the presence of IPA/NO-ASA and DEA/NO-ASA was measured using caspase-3 fluorescence assay kit (Cat No. 10009135, Cayman Chemical). Cells were plated at a concentration of 50,000 cells per well in a 96 well plate and grown overnight. Then the cells were treated with different concentrations of the compounds and controls for 12 h. After 12 h, the plate was centrifuged at 800 g and the media was removed by aspiration. 100 μL of lysis buffer was added to each well and the plate was incubated for […] at room temperature. 100 μL of a caspase-3 substrate solution was added to each well and incubated for 30 min after which the fluorescence was read at excitation of 485 nm and emission of 535 nm.

[9] = test system: reactive oxygen species (ROS); assay: ROS level with DCF; format: cell-based; conditions: 100 μM
Protocol: To investigate the role of ROS in apoptosis, the ROS level was studied in the presence of the compounds in a time dependent manner using 2′,7′-dichlorofluorescein (DCF) in all four cell lines. Cells were plated at a concentration of 30,000 cells per well and grown overnight. Cells were treated with 100 μM DCF (Sigma Aldrich) and incubated for 30 min at 37° C. The cells were then washed five times with PBS pH 7.4 and 100 μM of IPA/NO-aspirin, DEA/NO-aspirin, IPA/NO, DEA/NO and aspirin were added.

[10] = test system: MDA-MB-231 cell line; assay: Comet assay for DNA damage, MDA-MB-231; format: cell-based, human; conditions: 50 μM IPA/NO-aspirin, 75 μM DEA/NO-aspirin
Protocol: The pathological aspect of high ROS is the ability to cause oxidative damage to DNA. To further investigate this possibility, the effect of NONO-aspirin was studied on DNA damage using a comet assay in the MDA-MB-231 cell line.
Cells were plated at a concentration of 50,000 cells per well in a 12 well plate and grown overnight. Cells were treated with 50 μM IPA/NO-aspirin and 75 μM DEA/NO-aspirin for 12 h and the assay was conducted using a comet assay kit (Cat No. 4250-050-K, Trevigen, Md.) as described in the manufacturer's instructions.

[11] = test system: p53; assay: Phosphorylation of p53 in MB-231 cells; format: cell-based, human; conditions: 50 μM IPA/NO-aspirin, 75 μM DEA/NO-aspirin
Protocol: MB-231 cells were plated at a concentration on 1E6 and grown for 24 h. Then the cells were serum starved overnight followed by treatment with 50 μM and 75 μM, respectively, of IPA/NO-aspirin and DEA/NO-aspirin for 3, 6, 12 h. The cells were harvested and lysed with lysis buffer (cell signaling). Cell lysate was centrifuged at 13,000 rpm for 20 min and the supernatant was transferred to fresh tube. Protein ([…]) of protein was loaded in each lane on a 15% tris-glycine gel and electrophoresis was completed at 120V.

[12] = test system: E-cadherin; assay: E-cadherin expression in MDA-MB-231 cells; format: cell-based, human; conditions: MDA-MB-231, 100 μM, mRNA and protein level
Protocol: MDA-MB-231 cells were plated at a concentration of 500,000 cells per plate on 60 mm plate and grown overnight. They were then treated with 100 μM of IPA/NO-aspirin, DEA/NO-aspirin, IPA/NO, DEA/NO and aspirin for 1 to 24 h.

| Structure (SMILES) | stability in phosphate buffer [1] | NO release [2] | [NO]pA ([2]; +Ferricyanide 1 mM) [pA] | [NO]pA ([2]; without ferricyanide) [pA] | Prostaglandin E2 ([3]; 25 μM) [pg/mL] | Prostaglandin E2 ([3]; 50 μM) [pg/mL] | Prostaglandin E2 ([3]; 100 μM) [pg/mL] | IC50 [4] [µM] | IC50 [5] [µM] | cytotoxicity [6] | IC50 [7] [µM] | Caspase-3 Activity ([8]; MDA-MB-468, 25 μM) [U/mL] | Caspase-3 Activity ([8]; MDA-MB-468, 50 μM) [U/mL] | Caspase-3 Activity ([8]; MDA-MB-468, 100 μM) [U/mL] | ROS level [9] | DNA damage (comet assay) [10] | time point of activation of p53 phosphorylation [11] [h] | E-cadherin level [12] |
| --- | --- | --- | --- | --- | --- | --- | --- | --- | --- | --- | --- | --- | --- | --- | --- | --- | --- | --- |
| CCN(CC)[N+]([O-])=NOCOC(=O)c1ccccc1OC(C)=O [DEA/NO-aspirin, O^2-(Acetylsalicyloyloxymethyl)-1-(N,N-Diethylamino)-diazen-1-ium-1,2-diolate] | relatively stable | readily released NO | 5000 | 4600 | 21 | 38 | 36 | 85 | 90 | none of the compounds showed any significant cytotoxicity | 75 | 0.40 | 0.38 | 0.81 | much lower | comparable to the DMSO treated control | 1 | increased E-cadherin expression |
| CC(=O)Oc1ccccc1C(=O)OCON=[N+]([O-])NC(C)C [IPA/NO-aspirin, O^2-(Acetylsalicyloyloxymethyl)-1-(N-isopropylamino)-diazen-1-ium-1,2-diolate] | relatively stable | significantly lower NO production | 2100 | 1000 | 17 | 14 | 13 | 80 | 95 | none of the compounds showed any significant cytotoxicity | 50 | 0.60 | 0.60 | 0.50 | significant increase in ROS level | significant DNA damage | 10 | did not show any significant change |
